{
  "source": "ChEMBL document CHEMBL1125572",
  "about": "“Adenosine receptors: pharmacology, structure-activity relationships, and therapeutic potential” (J Med Chem, 1992)",
  "key": {"[1]": {"target": "T1, Adenosine receptor A1 (Rattus norvegicus, UniProt P25099)", "T1 sequence (P25099 whole entry)": "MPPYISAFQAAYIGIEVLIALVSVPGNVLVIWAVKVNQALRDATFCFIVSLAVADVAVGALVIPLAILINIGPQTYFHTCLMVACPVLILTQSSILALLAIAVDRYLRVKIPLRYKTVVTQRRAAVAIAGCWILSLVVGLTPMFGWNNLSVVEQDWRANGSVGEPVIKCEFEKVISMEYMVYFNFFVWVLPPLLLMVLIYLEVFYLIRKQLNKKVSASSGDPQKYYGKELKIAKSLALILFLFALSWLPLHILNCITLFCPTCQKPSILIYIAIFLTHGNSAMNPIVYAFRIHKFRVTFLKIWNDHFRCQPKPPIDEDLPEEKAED", "assay": "Binding affinity for Adenosine A1 receptor using [3H]- CHA or [3H]- PIA"}, "[2]": {"target": "Adenosine A2 receptor (Rattus norvegicus) (UniProt P29276+P30543)", "assay": "Binding affinity for Adenosine A2 receptor using [3H]- NECA", "type": "protein assay"}, "[3]": {"test_system": "Adenosine receptors; A1 & A2 (Rattus norvegicus)", "assay": "Ratio of adenosine A2 to A1 receptor binding"}, "[4]": {"target": "T1, Adenosine receptor A1"}, "[5]": {"target": "T2, Adenosine receptor A1 (Bos taurus, UniProt P28190)", "T2 sequence (P28190 whole entry)": "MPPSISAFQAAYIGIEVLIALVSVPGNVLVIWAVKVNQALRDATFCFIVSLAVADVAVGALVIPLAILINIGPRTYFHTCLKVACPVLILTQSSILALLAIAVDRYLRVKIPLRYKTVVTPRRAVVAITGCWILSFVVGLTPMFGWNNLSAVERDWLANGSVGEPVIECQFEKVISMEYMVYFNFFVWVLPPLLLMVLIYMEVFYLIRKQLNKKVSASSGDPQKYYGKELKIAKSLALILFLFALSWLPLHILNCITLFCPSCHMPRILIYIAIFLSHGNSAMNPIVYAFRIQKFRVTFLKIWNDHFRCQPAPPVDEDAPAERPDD", "assay": "Binding affinity for adenosine A1 receptor using [3H]- CHA or [3H]- PIA in bovine brain cortical membranes", "type": "cell membranes"}, "[6]": {"target": "T2, Adenosine receptor A1", "assay": "Binding affinity for adenosine A1 receptor using [3H]- CHA or [3H]- PIA in bovine brain"}, "[7]": {"target": "T3, Adenosine A2 receptor (Homo sapiens, UniProt P29275+P29274)", "assay": "Binding affinity for adenosine A2 receptor using [3H]- NECA in bovine brain", "conditions": "Bos taurus; target entry is the homologue from another species"}, "[8]": {"target": "T1, Adenosine receptor A1", "assay": "Binding affinity for adenosine A1 receptor using [3H]- CHA or [3H]- PIA antagonism of adenylate cyclase inhibition in rat adipocytes", "type": "cell-based"}, "[9]": {"target": "T3, Adenosine A2 receptor", "assay": "Binding affinity for adenosine A2 receptor using [3H]- NECA antagonism of adenylate cyclase activation in human platelets"}, "[10]": {"target": "Adenosine A2 receptor (Rattus norvegicus, UniProt P29276+P30543)", "assay": "Binding affinity for adenosine A2 receptor using [3H]- NECA", "type": "protein assay"}, "[11]": {"target": "T3, Adenosine A2 receptor", "assay": "Binding affinity for adenosine A2 receptor using [125I]PAPA-APEC in bovine striatum", "type": "tissue-based", "conditions": "Bos taurus, target entry is the homologue from another species"}},
  "note": "pKi: −log10 of the molar value.",
  "data": [
    {"compound": "CCCCCCCCCCCCCCCCCC(=O)NCCNC(=O)Cc1ccc(NC(=O)Cc2ccc(Nc3ncnc4c3ncn4C3O[C@H](CO)[C@@H](O)[C@H]3O)cc2)cc1", "note": "(stereo partly specified)", "values": [
      {"measurement": "pKi", "setting": "[1]", "value": 9.66},
      {"measurement": "pKi", "setting": "[2]", "value": 5.08},
      {"measurement": "Ratio", "setting": "[3]", "value": 38000}
    ]},
    {"compound": "CCCCCCC#Cc1nc(N)c2ncn([C@@H]3O[C@H](CO)[C@@H](O)[C@H]3O)c2n1", "values": [
      {"measurement": "pKi", "setting": "[4]", "value": 6.68}
    ]},
    {"compound": "C#CCn1c(=O)c2c(ncn2C)n(C)c1=O", "values": [
      {"measurement": "pKi", "setting": "[4]", "value": 4.66}
    ]},
    {"compound": "CCCn1c(=O)c2nc(-c3ccc(OCC(=O)NCCNC(=O)CCc4ccc(N)c(I)c4)cc3)[nH]c2n(CCC)c1=O", "values": [
      {"measurement": "pKi", "setting": "[5]", "value": 10.00}
    ]},
    {"compound": "Cn1cnc2c(NC3CC4CCC3C4)ncnc21", "note": "(stereo unspecified)", "values": [
      {"measurement": "pKi", "setting": "[6]", "value": 8.00},
      {"measurement": "pKi", "setting": "[7]", "value": 5.21}
    ]},
    {"compound": "CCCn1c(=O)c2nc([C@H]3CC[C@H](CNC(C)=O)CC3)[nH]c2n(CCC)c1=O", "values": [
      {"measurement": "pKi", "setting": "[8]", "value": 8.10},
      {"measurement": "Ki", "setting": "[9]", "value": 0.02, "unit": "µM"}
    ]},
    {"compound": "OC[C@H]1O[C@@H](n2cnc3c(NCCc4ccccc4)ncnc32)[C@H](O)[C@@H]1O", "values": [
      {"measurement": "pKi", "setting": "[1]", "value": 8.39}
    ]},
    {"compound": "Nc1nc(NCCC2C=CCCC2)nc2c1ncn2C1O[C@H](CO)[C@@H](O)[C@H]1O", "note": "(stereo partly specified)", "values": [
      {"measurement": "pKi", "setting": "[4]", "value": 5.57}
    ]},
    {"compound": "CCNC(=O)[C@H]1OC(n2cnc3c(N)nc(NCCc4ccc(CCC(=O)NCCNC(=O)Cc5ccc(N)c(I)c5)cc4)nc32)[C@H](O)[C@@H]1O", "note": "(stereo partly specified)", "values": [
      {"measurement": "Ki", "setting": "[10]", "value": 0.001, "unit": "µM"}
    ]},
    {"compound": "CCNC(=O)[C@H]1OC(n2cnc3c(N)nc(NCCc4ccc(CCC(=O)NCC/N=C(\\S)Nc5ccc(N=C=S)cc5)cc4)nc32)[C@H](O)[C@@H]1O", "note": "(stereo partly specified)", "values": [
      {"measurement": "pKi", "setting": "[4]", "value": 6.55},
      {"measurement": "pKi", "setting": "[11]", "value": 8.15}
    ]},
    {"compound": "OC[C@H]1O[C@@H](n2cnc3c(Nc4ccccc4)ncnc32)[C@H](O)[C@@H]1O", "values": [
      {"measurement": "pKi", "setting": "[2]", "value": 6.18}
    ]},
    {"compound": "Cc1ccc(CCOc2nc(N)c3ncn(C4O[C@@H](CO)[C@H](O)[C@@H]4O)c3n2)cc1", "note": "(stereo partly specified)", "values": [
      {"measurement": "pKi", "setting": "[4]", "value": 7.32}
    ]},
    {"compound": "OCCCNc1ncnc2c1ncn2C1O[C@H](CO)[C@@H](O)[C@H]1O", "note": "(stereo partly specified)", "values": [
      {"measurement": "pKi", "setting": "[1]", "value": 8.15},
      {"measurement": "pKi", "setting": "[2]", "value": 5.31},
      {"measurement": "Ratio", "setting": "[3]", "value": 700}
    ]},
    {"compound": "Cc1c(C)n([C@H](C)Cc2ccccc2)c2nc(-c3ccccc3)nc(N)c12", "values": [
      {"measurement": "pKi", "setting": "[4]", "value": 8.33}
    ]},
    {"compound": "CCCn1c(=O)c2[nH]c(C3CCC(=O)C3)nc2n(CCC)c1=O", "note": "(stereo unspecified)", "values": [
      {"measurement": "pKi", "setting": "[4]", "value": 7.98}
    ]},
    {"compound": "CCNC(=O)[C@H]1O[C@@H](n2cnc3c(N)nc(NCCc4ccc(CCC(=O)NCCN)cc4)nc32)[C@H](O)[C@@H]1O", "values": [
      {"measurement": "pKi", "setting": "[4]", "value": 6.62},
      {"measurement": "Ki", "setting": "[10]", "value": 0.0057, "unit": "µM"}
    ]},
    {"compound": "CCCCC#Cc1nc(N)c2ncn([C@@H]3O[C@H](CO)[C@@H](O)[C@H]3O)c2n1", "values": [
      {"measurement": "pKi", "setting": "[4]", "value": 6.83}
    ]},
    {"compound": "Nc1nc2ccc(Cl)cc2n2c(-c3ccccc3)nnc12", "values": [
      {"measurement": "pKi", "setting": "[4]", "value": 6.57}
    ]},
    {"compound": "Cn1c(=O)c2c(nc(C3CCCCC3)n2C)n(C)c1=O", "values": [
      {"measurement": "Ki", "setting": "[9]", "value": 0.00019, "unit": "µM"}
    ]},
    {"compound": "Nc1ccc(CNc2ncnc3c2ncn3C2O[C@H](CO)[C@@H](O)[C@H]2O)cc1I", "note": "(stereo partly specified)", "values": [
      {"measurement": "pKi", "setting": "[1]", "value": 9.15}
    ]},
    {"compound": "Oc1cccc(C2=CSC3=Nc4ccccc4CN23)c1", "values": [
      {"measurement": "pKi", "setting": "[4]", "value": 5.51}
    ]},
    {"compound": "FC(F)(F)c1nnc2c(NC3CCCC3)nc3ccc(Cl)cc3n12", "values": [
      {"measurement": "pKi", "setting": "[4]", "value": 7.55}
    ]},
    {"compound": "CCCn1c(=O)c2nc(C3CCCC3)[nH]c2n(CCc2ccc(N)c(I)c2)c1=O", "values": [
      {"measurement": "pKi", "setting": "[4]", "value": 9.64}
    ]},
    {"compound": "O=C(Cc1ccc(NC(=O)Cc2ccc(Nc3ncnc4c3ncn4C3O[C@H](CO)[C@@H](O)[C@H]3O)cc2)cc1)NCC/N=C(/S)Nc1ccc2c(c1)C(=O)OC21c2ccc(O)cc2Oc2cc(O)ccc21", "note": "(stereo partly specified)", "values": [
      {"measurement": "pKi", "setting": "[1]", "value": 8.15}
    ]},
    {"compound": "Nc1nc(-c2ccccc2)nc2c1cnn2-c1ccccc1", "values": [
      {"measurement": "pKi", "setting": "[4]", "value": 7.64}
    ]},
    {"compound": "Nc1ccc(CCNc2ncnc3c2ncn3C2O[C@H](CO)[C@@H](O)[C@H]2O)cc1I", "note": "(stereo partly specified)", "values": [
      {"measurement": "pKi", "setting": "[1]", "value": 8.70}
    ]},
    {"compound": "C[C@H](Cc1ccc(O)c(I)c1)Nc1ncnc2c1ncn2[C@@H]1O[C@H](CO)[C@@H](O)[C@H]1O", "values": [
      {"measurement": "pKi", "setting": "[1]", "value": 9.03}
    ]},
    {"compound": "Nc1nc(OCCC2CCCCC2)nc2c1ncn2C1O[C@@H](CO)[C@H](O)[C@@H]1O", "note": "(stereo partly specified)", "values": [
      {"measurement": "pKi", "setting": "[4]", "value": 5.82}
    ]}
  ]
}
